Measurements: US20150166476A1, “METHODS FOR TREATING NEURODEGENERATIVE DISEASES ASSOCIATED WITH AGGREGATION OF AMYLOID-BETA” (priority 2013, published 2015)
“Also recorded” adds a separate entry of the source.

Legend:
[1] = target: T1, Aβ1-40 (Homo sapiens, UniProt P05067); test: Peptide aggregation assay (Thioflavin-T fluorescence); format: biochemical; conditions: 25 μM Aβ1-40, 100 ng/mL compound, 37° C., day 5 (FIG. 1)
T1 construct: Aβ1-40 peptide was synthesized in a solid-phase synthesizer; made in house; host or cells: chemical solid-phase peptide synthesis (no expression host)
Protocol: Thioflavin-T (ThT) was used to monitor the aggregation state of Aβ1-40. 25 μM of Aβ1-40 was freshly diluted from the peptide stock solution in phosphate buffer (pH 7.4), for peptide aggregation assay. All samples containing a peptide concentration of 25 μM in the absence or presence of 100 ng/mL the compound of formula (I) and 3 μM ThT were incubated at 37° C. Samples containing either Aβ peptide only (control), or Aβ with the compound of formula (I), taking daily from day 0 to day 7, were used to measure the ThT sensitivity. The fluorescence measurement was performed on a microplate reader (FlexSTation 3, MD), with excitation and emission wavelength respectively set at 440 nm and 485 nm.
In this example, the effects of the compound of formula (I) on the aggregation of Aβ1-40 were investigated using the Th-T fluorescence assay described above in the Material and Methods section. Results are depicted in FIG. 1.

[2] = target: T1, Aβ1-40; test: FT-IR spectroscopy of the secondary structure of Aβ1-40; format: biochemical; conditions: day 1 and day 5 (FIG. 2)
Protocol: The secondary structure of Aβ1-40 with or without the compound of formula (I) was investigated using FT-IR spectrometer (Jasco, FT-IR/4100) equipped with an attenuated reflection accessory to determine the conformation of Aβ1-40 during the aggregative process. 100 μL of 0.1 mM Aβ solution was coated on ZnSe crystals and dried overnight in a desiccators at room temperature. The spectra were recorded at 1,500 to 1,800 cm^−1 with a 1 cm^−1 interval. The peak was identified from the first derivation of the IR spectrum in the amide I region, and the secondary structure was analyzed using Original 6.0 software.
It is known that during the aggregation process, the conformation of Aβ1-40 is converted to either […]. […] Results are depicted in FIG. 2.

[3] = tested on: SH-SY5Y cells; test: Cell viability assay (WST-1), Aβ1-40 induced cell death; format: cell-based, Human; conditions: for effect on Aβ1-40 induced cell death (cell viability): 25 μM Aβ1-40, 24 hr, compound at concentration below 100 ng/mL (FIG. 3)
Protocol: Human […] SH-SY5Y cells were cultured in minimum essential medium supplemented with 10% (v/v) heat-inactivated fetal bovine serum, 50% (v/v) F-12 nutrient mixture, and 1% (v/v) antibiotic mixture comprised of penicillin and streptomycin. Cells were kept at 37° C. in a humidified atmosphere of 5% CO2. SH-SY5Y cells were plated at a density of 1×10^5 viable cells per well in 96-well plates for future analysis.
The cell viability was determined by the WST-1 assay. […] of Aβ1-40 peptide stock solution were prepared by dissolving 1 mg Aβ1-40 in 1 mL trifluoroethanol and centrifuging to remove any insoluble particles. The peptide solution was then dried under nitrogen gas and re-dissolved in dimethyl sulfoxide, and incubated at 4° C. for 12 hr to provide the final peptide stock solution. For the viability assay, cells (1×10^5 cells/well in a 96-well microtiter plate) were treated with either 25 μM Aβ peptides only (as a positive control), or with the combination of 25 μM Aβ peptides and the compound of formula (I), in a concentration ranged from 1 to 1,000 ng/mL. The reaction was performed in a total volume of 200 μL per well for 24 hr at 37° C. in a humidified atmosphere containing 5% CO2 before cell viability was assayed. The WST-1 solution (10 μL) was added to each well, and the wells were incubated for another 4-5 hr at room temperature. The optical density was measured at 405 nm using a microplate reader.
In this example, the effects of compounds of formula (I) on Aβ1-40 induced cell toxicity were investigated by cell viability assay.

[4] = target: T1, Aβ1-40; test: Free radical assay (DCFH-DA), cell free; format: biochemical; conditions: 25 μM Aβ1-40, versus Aβ1-40 alone (FIG. 4)
Protocol: The level of free radicals (H2O2) induced by Aβ1-40 peptide in cell free conditions was analyzed using the dichlorofluorescein diacetate (DCFH-DA) assay. DCF-DA was deacetylated with 50% (v/v) 0.05 M NaOH for 30 min and neutralized (pH 7.5) to a final concentration of 200 μM as a stock solution. This stock solution was kept on ice in the dark until future use. The reactions were carried out in a 96-well plate (200 μL/well) containing 25 μM of Aβ1-40 diluted from the stock solution, 20 μM deacetylated DCF, 5 μM horseradish peroxidase, in Dulbecco's phosphate-buffered saline, pH 7.5. To determine the inhibitory effects of the compound of formula (I) on free radical formation, various concentrations of the compound of formula (I) were added and incubated at 37° C. Fluoresence readings were recorded on a microplate reader (FlexSTation 3, MD) with the excitation wavelength of 485 nm and the emission wavelength of 530 nm. The fluorescence intensity of DCF (H2O2 level) was measured every 6 hr and from 0 to 72 hr.

T1 sequence (P05067 672-711 limits assumed): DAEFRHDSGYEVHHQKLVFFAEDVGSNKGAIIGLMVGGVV

Structure (SMILES) | effect on the aggregation of Aβ1-40 (Th-T fluorescence intensity) [1] | conformation of Aβ1-40 (FT-IR, 1650 cm^−1 random coil vs 1625 cm^−1 β-sheet) [2] | effect on Aβ1-40 induced cell death (cell viability) [3] | Aβ1-40 induced free radical levels (DCF fluorescence intensity) [4] | cell survival rate ([3]; 25 μM Aβ1-40, 1 ng/mL compound) | cell survival rate ([3]; 25 μM Aβ1-40, 100 ng/mL compound) | cell survival rate ([3]; 25 μM Aβ1-40, 1,000 ng/mL compound)
CC1=C(SCCO)C(=O)c2ccccc2C1=O [VK3-1] | capable of enhancing the aggregation of Aβ1-40 | converted to β-sheet structure | smaller effects | resulted even more free radicals as compared with the control |  |  | 
CC1=C(SCCCO)C(=O)c2ccccc2C1=O [VK3-2] | capable of preventing Aβ1-40 from aggregation | remained mostly in random coil conformation | smaller effects | resulted even more free radicals as compared with the control |  |  | 
CC1=C(SCCCCO)C(=O)c2ccccc2C1=O [VK3-3] |  | converted to β-sheet structure | smaller effects | resulted even more free radicals as compared with the control |  |  | 
CC1=C(SCCCCCCO)C(=O)c2ccccc2C1=O [VK3-4] | capable of enhancing the aggregation of Aβ1-40 |  | smaller effects |  |  |  | 
CC1=C(SCCCCCCCCCCCO)C(=O)c2ccccc2C1=O [VK3-5] | capable of enhancing the aggregation of Aβ1-40 | converted to β-sheet structure | smaller effects | effectively inhibited |  |  | 
CC1=C(SCCC(=O)O)C(=O)c2ccccc2C1=O [VK3-6] | capable of preventing Aβ1-40 from aggregation; also recorded: most potent | remained mostly in random coil conformation |  |  |  |  | 
CC1=C(SCC(C)O)C(=O)c2ccccc2C1=O (centres unmarked) [VK3-8] | capable of preventing Aβ1-40 from aggregation | remained mostly in random coil conformation | smaller effects | resulted even more free radicals as compared with the control |  |  | 
CC1=C(SCC(O)CO)C(=O)c2ccccc2C1=O (centres unmarked) [VK3-9] | capable of preventing Aβ1-40 from aggregation; also recorded: most potent | remained mostly in random coil conformation | exhibited the ability of preventing Aβ1-40 induced cell death | effectively inhibited | 50% | 88% | 92%
O=C1C=C(SCCO)C(=O)c2ccccc21 [VK3-199] | capable of preventing Aβ1-40 from aggregation | remained mostly in random coil conformation | smaller effects | resulted even more free radicals as compared with the control |  |  | 
CC1=C(O)C(=O)c2ccccc2C1=O [VK3-221] | capable of preventing Aβ1-40 from aggregation | remained mostly in random coil conformation | smaller effects |  |  |  | 
CC1=C(NCCN2CCOCC2)C(=O)c2ccccc2C1=O [VK3-224] | capable of preventing Aβ1-40 from aggregation | remained mostly in random coil conformation | no difference from that of the control |  |  |  | 
O=C1C(SCCO)=C(SCCO)C(=O)c2ccccc21 [VK3-231] |  |  | smaller effects | resulted even more free radicals as compared with the control |  |  | 
O=C1C(SCC(O)CO)=C(SCC(O)CO)C(=O)c2ccccc21 (centres unmarked) [VK3-232] |  |  | no difference from that of the control |  |  |  | 
O=C1C(SCCCCCCO)=C(SCCCCCCO)C(=O)c2ccccc21 [VK3-233-2d] | capable of enhancing the aggregation of Aβ1-40 | converted to β-sheet structure | no difference from that of the control | resulted even more free radicals as compared with the control |  |  | 
